Assay results reported in patent US10294202B2, “Pyrrolidinones as herbicides” (FMC Corporation, priority 2013, dated 2019).

Tests used:
corn [1] = assay: Test C pre-/postemergence herbicide test; assay type: in vivo, Zea mays
How it was run: (§1)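 Visual rating, 0 (no effect) to 100 (complete control), versus untreated controls after 13 to 15 days in the greenhouse. Pre: seeds in loam/sand, sprayed at planting. Post: 1- to 4-leaf plants (2 to 18 cm) in peat-based mix. Compounds in non-phytotoxic solvent plus surfactant.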

oat, wild = assay: Test C pre-/postemergence herbicide test; assay type: in vivo, Avena fatua; conditions: Postemergence
How it was run: as §1

barnyardgrass = assay: Test A pre-/postemergence herbicide test; assay type: in vivo, Echinochloa crus-galli
How it was run: (§2)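 Seeds sown in loam soil/sand blend received a preemergence directed soil spray of test chemical in non-phytotoxic solvent with surfactant; postemergence plants (2–10 cm, one- to two-leaf stage) were sprayed with the same formulation. After about 10 days in greenhouse, injury was rated visually versus untreated controls, 0 (no effect) to 100 (complete control).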

soybean = assay: Test C pre-/postemergence herbicide test; assay type: in vivo, Glycine max
How it was run: as §1

corn [2] = assay: Test A pre-/postemergence herbicide test; assay type: in vivo, Zea mays; conditions: Postemergence
How it was run: as §2

foxtail, giant = assay: Test C pre-/postemergence herbicide test; assay type: in vivo, Setaria faberii
How it was run: as §1

pigweed = assay: Test A pre-/postemergence herbicide test; assay type: in vivo, Amaranthus retroflexus; conditions: for Plant response rating, Pigweed: 0 to 100 scale
How it was run: as §2

galium = assay: Test C pre-/postemergence herbicide test; assay type: in vivo, Galium aparine; conditions: Preemergence
How it was run: as §1

ragweed = assay: Test C pre-/postemergence herbicide test; assay type: in vivo, Ambrosia elatior
How it was run: as §1

ryegrass, Italian = assay: Test C pre-/postemergence herbicide test; assay type: in vivo, Lolium multiflorum
How it was run: as §1

sedge, umbrella = assay: Test B flooded paddy test; assay type: in vivo, Cyperus difformis; conditions: 500 g ai/ha, Flood; scale of 0 to 100 where 0 is no effect and 100 is complete control
How it was run: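 Plants grown to 2-leaf stage; pots flooded 3 cm above soil and compound applied directly into paddy water, depth held throughout. Visual rating against untreated controls after 13 to 15 days in greenhouse, 0 (no effect) to 100 (complete control).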

[3] = Postemergence, 31 g ai/ha, scale 0 to 100 (0 no effect, 100 complete control)
[4] = Postemergence, 62 g ai/ha, scale 0 (no effect) to 100 (complete control)
[5] = Postemergence, 125 g ai/ha, scale 0 to 100 (0 no effect, 100 complete control)
[6] = Postemergence, 250 g ai/ha, scale 0 to 100 (0 no effect, 100 complete control)
[7] = Preemergence, 31 g ai/ha, scale 0 to 100, 0 is no effect and 100 is complete control
[8] = Preemergence, 62 g ai/ha, scale 0 to 100
[9] = Preemergence, 125 g ai/ha, scale 0 to 100 (0 no effect, 100 complete control)
[10] = 125 g ai/ha, scale 0 to 100 (0 no effect, 100 complete control)

Which “Plant response rating, Corn” value (corn [1]; [3]) does the source give for O=C1NCC(c2ccc(F)cc2)C1C(=O)Nc1cccc(F)c1F (racemic) [Compound 119] here?
Its value is 0.

And the “Plant response rating, Corn” value (corn [1]; [4])?
The value was 0.

What about the “Plant response rating, Corn” value (corn [1]; [5]) of the same compound?
The value was 0.

And the “Plant response rating, Corn” value (corn [1]; [6])?
The value was 5.

What about the “Corn plant response rating” value (corn [1]; [7]) of the same compound?
The value was 0.

What about the “Plant response rating, Corn” value (corn [1]; [8]) of the same compound?
The value was 0.

And the “Plant response rating, Corn” value (corn [1]; [9])?
The value was 15.

What about the “Plant response rating (scale of 0 to 100), Corn” value (corn [1]; Preemergence, 250 g ai/ha) of the same compound?
The value was 45.

What about the “Plant response rating, Oat, Wild” value (oat, wild; 31 g ai/ha, scale 0 to 100 (0 no effect, 100 complete control)) of the same compound?
Its value is 0.

What about the “Plant response rating, Oat, Wild” value (oat, wild; 62 g ai/ha, scale 0 (no effect) to 100 (complete control)) of the same compound?
The value was 0.

And the “Plant response rating, Oat, Wild” value (oat, wild; [10])?
The value was 0.

What about the “Plant response rating, Oat, Wild” value (oat, wild; 250 g ai/ha, scale 0 to 100 (0 no effect, 100 complete control)) of the same compound?
Its value is 0.

What about the “Plant response rating, Barnyardgrass” value (barnyardgrass; 125 g ai/ha, visual rating, 0 to 100 scale, 0 no effect, 100 complete control, approximately 10 days, preemergence) of the same compound?
Its value is 90.

What about the “Plant response rating, Barnyardgrass” value (barnyardgrass; Postemergence, 125 g ai/ha, 0 to 100 scale, 0 no effect, 100 complete control) of the same compound?
Its value is 90.

What about the “Plant response rating, Barnyardgrass” value (barnyardgrass; Postemergence, 500 g ai/ha, 0 to 100 scale (0 no effect, 100 complete control)) of the same compound?
The value was 90.

What about the “Plant response rating, Barnyardgrass” value (barnyardgrass; preemergence, 500 g ai/ha, 0 to 100 scale (0 no effect, 100 complete control)) of the same compound?
The value was 90.

What about the “Plant response rating, Soybean” value (soybean; [3]) of the same compound?
Its value is 5.

And the “Plant response rating, Soybean” value (soybean; [4])?
The value was 5.

What about the “Plant response rating, Soybean” value (soybean; [5]) of the same compound?
Its value is 0.

And the “Plant response rating, Soybean” value (soybean; [6])?
The value was 5.

What about the “Soybean plant response rating” value (soybean; [7]) of the same compound?
Its value is 0.

What about the “Plant response rating, Soybean” value (soybean; [8]) of the same compound?
Its value is 20.

And the “Plant response rating, Soybean” value (soybean; [9])?
The value was 0.

And the “Plant response rating (scale of 0 to 100), Soybean” value (soybean; Preemergence, 250 g ai/ha)?
The value was 0.

What about the “Plant response rating, Corn” value (corn [2]; 125 g ai/ha, 0 to 100 scale, 0 no effect, 100 complete control) of the same compound?
Its value is 30.

And the “Plant response rating, Corn” value (corn [2]; 500 g ai/ha, 0 to 100 scale (0 no effect, 100 complete control))?
The value was 70.

What about the “Plant response rating, Foxtail, Giant” value (foxtail, giant; [3]) of the same compound?
Its value is 10.

What about the “Plant response rating, Foxtail, Giant” value (foxtail, giant; [4]) of the same compound?
The value was 25.

And the “Plant response rating, Foxtail, Giant” value (foxtail, giant; [5])?
Its value is 85.

What about the “Plant response rating, Foxtail, Giant” value (foxtail, giant; [6]) of the same compound?
The value was 90.

What about the “Foxtail, Giant plant response rating” value (foxtail, giant; [7]) of the same compound?
The value was 90.

And the “Plant response rating, Foxtail, Giant” value (foxtail, giant; [8])?
The value was 90.

What about the “Plant response rating, Foxtail, Giant” value (foxtail, giant; [9]) of the same compound?
Its value is 98.

And the “Plant response rating (scale of 0 to 100), Foxtail, Giant” value (foxtail, giant; Preemergence, 250 g ai/ha)?
The value was 98.

And the “Plant response rating, Pigweed” value (pigweed; 125 g ai/ha, visual rating, 0 no effect, 100 complete control, approximately 10 days, preemergence)?
Its value is 30.

And the “Plant response rating, Pigweed” value (pigweed; Postemergence, 125 g ai/ha, 0 no effect, 100 complete control)?
The value was 30.

And the “Pigweed plant response rating (0 to 100 scale, 0 is no effect, 100 is complete control)” value (pigweed; Postemergence, 500 g ai/ha)?
Its value is 30.

And the “Plant response rating, Pigweed” value (pigweed; preemergence, 500 g ai/ha)?
Its value is 40.

What about the “Galium plant response rating” value (galium; 31 g ai/ha, scale 0 to 100, 0 is no effect and 100 is complete control) of the same compound?
Its value is 80.

And the “Plant response rating, Galium” value (galium; 62 g ai/ha, scale 0 to 100)?
The value was 80.

What about the “Plant response rating, Galium” value (galium; [10]) of the same compound?
Its value is 85.

What about the “Plant response rating (scale of 0 to 100), Galium” value (galium; 250 g ai/ha) of the same compound?
Its value is 90.

What about the “Plant response rating, Ragweed” value (ragweed; [3]) of the same compound?
The value was 20.

What about the “Plant response rating, Ragweed” value (ragweed; [4]) of the same compound?
The value was 0.

And the “Plant response rating, Ragweed” value (ragweed; [5])?
Its value is 45.

And the “Plant response rating, Ragweed” value (ragweed; [6])?
The value was 25.

And the “Ragweed plant response rating” value (ragweed; [7])?
The value was 60.

And the “Plant response rating, Ragweed” value (ragweed; [8])?
Its value is 35.

And the “Plant response rating, Ragweed” value (ragweed; [9])?
Its value is 75.

And the “Plant response rating (scale of 0 to 100), Ragweed” value (ragweed; Preemergence, 250 g ai/ha)?
Its value is 80.

What about the “Plant response rating, Ryegrass, Italian” value (ryegrass, Italian; [3]) of the same compound?
The value was 0.

What about the “Plant response rating, Ryegrass, Italian” value (ryegrass, Italian; [4]) of the same compound?
Its value is 0.

And the “Plant response rating, Ryegrass, Italian” value (ryegrass, Italian; [5])?
The value was 0.

What about the “Plant response rating, Ryegrass, Italian” value (ryegrass, Italian; [6]) of the same compound?
Its value is 5.

And the “Ryegrass, Italian plant response rating” value (ryegrass, Italian; [7])?
The value was 0.

What about the “Plant response rating, Ryegrass, Italian” value (ryegrass, Italian; [8]) of the same compound?
Its value is 15.

And the “Plant response rating, Ryegrass, Italian” value (ryegrass, Italian; [9])?
Its value is 30.

What about the “Plant response rating (scale of 0 to 100), Ryegrass, Italian” value (ryegrass, Italian; Preemergence, 250 g ai/ha) of the same compound?
The value was 40.

And the “Plant response rating, Sedge, Umbrella” value (sedge, umbrella)?
Its value is 0.
